We go through 23 compounds from patent US8404692B2, “Pyrimidin-4-yl-3, 4-dihydro-2H-pyrrolo [1,2A] pyrazin-1-one compounds” (Cyclacel Limited, priority 2005, dated 2013).

A word on the IC50: it is the concentration that inhibits the measured activity by half.

In this experiment the target is T1, aurora-A (human) (Homo sapiens, UniProt O14965).
T1 construct: purchased Upstate, Dundee, UK
T1 sequence (O14965 1-403): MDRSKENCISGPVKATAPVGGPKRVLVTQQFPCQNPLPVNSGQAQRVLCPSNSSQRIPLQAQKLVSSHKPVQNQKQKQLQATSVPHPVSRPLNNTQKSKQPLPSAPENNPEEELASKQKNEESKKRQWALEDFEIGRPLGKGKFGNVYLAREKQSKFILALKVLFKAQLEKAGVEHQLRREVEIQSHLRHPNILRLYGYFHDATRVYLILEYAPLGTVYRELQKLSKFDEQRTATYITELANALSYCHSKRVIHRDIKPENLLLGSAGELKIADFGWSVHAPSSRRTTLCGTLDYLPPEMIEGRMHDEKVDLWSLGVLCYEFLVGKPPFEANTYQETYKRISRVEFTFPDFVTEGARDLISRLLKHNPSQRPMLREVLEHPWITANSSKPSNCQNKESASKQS
Put plainly: Aurora-A (human) kinase assay. Format: biochemical. The note with it: read-out: Activity (Aurora A activity, IC50 grading). On the procedure: This was achieved by measurement of incorporation of radioactive phosphate from ATP into Kemptide substrate (LRRASLG), upon phosphorylation by commercially obtained aurora-A (human, Upstate; Dundee, UK). Assays were performed using 96-well plates and appropriate assay buffers (20 mM Tris, 25 mM β-glycerophosphate, 5 mM EGTA, 1 mM DTT, 1 mM sodium vanadate, pH 7.5), into which were added 2-5 ng of active enzyme with 500 μM substrate (Kemptide). The reactions were initiated by addition of MATP mix (15 mM MgCl2+100 μM ATP with 15-25 kBq per well of [γ-^32P]-ATP) and mixtures incubated for 30 min at 30° C. Reactions were stopped by addition of an equal volume of 75 mM aq orthophosphoric acid, followed by filtration through p81 filterplates (Whatman Polyfiltronics, Kent, UK). After washing 4 times with 75 mM aq orthophosphoric acid, plates were dried, scintillant added and incorporated radioactivity measured in a scintillation counter (TopCount, Packard Instruments, Pangbourne, Berks, UK). Compounds for kinase assay were made up as 10 mM stocks in DMSO and diluted into 10% DMSO in assay buffer. Data was analysed using curve-fitting software (XLfit version 4.0.2, IDBS, Guildford, Surrey, UK) to determine IC50 values (concentration of test compound which inhibits kinase activity by 50%).
For `Cc1c(-c2ccnc(Nc3cccc(OC(F)(F)F)c3)n2)c(C)n2c1C(=O)NCC2` [Example I-30, 6,8-Dimethyl-7-[2-(3-trifluoromethoxy-phenylamino)pyrimidin-4-yl]-3,4-dihydro-2H-pyrrolo[1,2-a]pyrazin-1-one], the IC50 is below 10000 nM.

For `Cc1c(-c2ccnc(Nc3cccc(O)c3)n2)c(C)n2c1C(=O)NCC2` [Example I-31, 7-[2-(3-Hydroxy-phenylamino)-pyrimidin-4-yl]-6,8-dimethyl-3,4-dihydro-2H-pyrrolo[1,2-a]pyrazin-1-one], the IC50 was below 1000 nM.

For `Cc1c(-c2ccnc(Nc3cccc(S(C)(=O)=O)c3)n2)c(C)n2c1C(=O)NCC2` [Example I-32, 7-[2-(3-Methanesulfonyl-phenylamino)-pyrimidin-4-yl]-6,8-dimethyl-3,4-dihydro-2H-pyrrolo[1,2-a]pyrazin-1-one], the IC50 is below 100 nM.

Turning to `Cc1c(-c2ccnc(Nc3ccc(S(C)(=O)=O)cc3)n2)c(C)n2c1C(=O)NCC2` [Example I-33, 7-[2-(4-Methanesulfonyl-phenylamino)-pyrimidin-4-yl]-6,8-dimethyl-3,4-dihydro-2H-pyrrolo[1,2-a]pyrazin-1-one], the IC50 was below 100 nM.

`Cc1c(-c2ccnc(Nc3cccc(CCC(=O)O)c3)n2)c(C)n2c1C(=O)NCC2` [Example I-34, 3-{3-[4-(6,8-Dimethyl-1-oxo-1,2,3,4-tetrahydro-pyrrolo[1,2-a]pyrazin-7-yl)-pyrimidin-2-ylamino]-phenyl}-propionic acid]: the IC50 is below 100 nM.

As for `Cc1c(-c2ccnc(Nc3cccc(S(=O)(=O)N4CCOCC4)c3)n2)c(C)n2c1C(=O)NCC2` [Example I-35, 8-Dimethyl-7-{2-[3-(morpholine-4-sulfonyl)-phenylamino]-pyrimidin-4-yl}-3,4-dihydro-2H-pyrrolo[1,2-a]pyrazin-1-one], the IC50 was below 1000 nM.

With `Cc1ccc(Nc2nccc(-c3c(C)c4n(c3C)CCNC4=O)n2)cc1S(=O)(=O)N1CCOCC1` [Example I-36, 6,8-Dimethyl-7-{2-[4-methyl-3-(morpholine-4-sulfonyl)-phenylamino]-pyrimidin-4-yl}-3,4-dihydro-2H-pyrrolo[1,2-a]pyrazin-1-one], the IC50 was below 1000 nM.

Take `Cc1c(-c2ccnc(Nc3ccc(N4CCSCC4)cc3)n2)c(C)n2c1C(=O)NCC2` [Example I-37, 6,8-Dimethyl-7-[2-(4-thiomorpholin-4-yl-phenylamino)-pyrimidin-4-yl]-3,4-dihydro-2H-pyrrolo[1,2-a]pyrazin-1-one]: the IC50 was below 1000 nM.

For `COCCNS(=O)(=O)c1ccc(Nc2nccc(-c3c(C)c4n(c3C)CCNC4=O)n2)cc1` [Example I-38, 4-[4-(6,8-Dimethyl-1-oxo-1,2,3,4-tetrahydro-pyrrolo[1,2-a]pyrazin-7-yl)-pyrimidin-2-ylamino]-N-(2-methoxy-ethyl)-benzenesulfonamide], the IC50 is below 1000 nM.

As to `Cc1ccc(Nc2nccc(-c3c(C)c4n(c3C)CCNC4=O)n2)cc1` [Example I-39, 6,8-Dimethyl-7-(2-p-tolylamino-pyrimidin-4-yl)-3,4-dihydro-2H-pyrrolo[1,2-a]pyrazin-1-one], the IC50 was below 1000 nM.

With `Cc1c(-c2ccnc(Nc3ccc(C(C)C(=O)O)cc3)n2)c(C)n2c1C(=O)NCC2` (centres unmarked) [Example I-40, 2-{4-[4-(6,8-Dimethyl-1-oxo-1,2,3,4-tetrahydro-pyrrolo[1,2-a]pyrazin-7-yl)-pyrimidin-2-ylamino]-phenyl}-propionic acid], the IC50 was below 1000 nM.

With `Cc1c(-c2ccnc(Nc3cccc(OCC(=O)O)c3)n2)c(C)n2c1C(=O)NCC2` [Example I-41, {3-[4-(6,8-Dimethyl-1-oxo-1,2,3,4-tetrahydro-pyrrolo[1,2-a]pyrazin-7-yl)-pyrimidin-2-ylamino]-phenoxy}-acetic acid], the concentration for half-maximal inhibition (IC50) was below 100 nM.

Turning to `Cc1c(-c2ccnc(Nc3cccc(NS(C)(=O)=O)c3)n2)c(C)n2c1C(=O)NCC2` [Example I-42, N-{3-[4-(6,8-Dimethyl-1-oxo-1,2,3,4-tetrahydro-pyrrolo[1,2-a]pyrazin-7-yl)-pyrimidin-2-ylamino]-phenyl}-methanesulfonamide], the IC50 is below 1000 nM.

With `CNS(=O)(=O)c1ccc(Nc2nccc(-c3c(C)c4n(c3C)CCNC4=O)n2)cc1OC` [Example I-43, 4-[4-(6,8-Dimethyl-1-oxo-1,2,3,4-tetrahydropyrrolo[1,2-a]pyrazin-7-yl)-pyrimidin-2-ylamino]-2-methoxy-N-methyl-benzenesulfonamide], the IC50 was below 1000 nM.

Turning to `Cc1c(-c2ccnc(Nc3ccc(N4CCOC4=O)cc3)n2)c(C)n2c1C(=O)NCC2` [Example I-44, 6,8-Dimethyl-7-{2-[4-(2-oxo-oxazolidin-3-yl)-phenylamino]-pyrimidin-4-yl}-3,4-dihydro-2H-pyrrolo[1,2-a]pyrazin-1-one], the IC50 was below 1000 nM.

Turning to `Cc1c(-c2ccnc(Nc3ccc4c(c3)COCO4)n2)c(C)n2c1C(=O)NCC2` [Example I-45, 7-[2-(4H-Benzo[1,3]dioxin-6-ylamino)-pyrimidin-4-yl]-6,8-dimethyl-3,4-dihydro-2H-pyrrolo[1,2-a]pyrazin-1-one], the IC50 is below 100 nM.

With `Cc1nccc(-c2cccc(Nc3nccc(-c4c(C)c5n(c4C)CCNC5=O)n3)c2)n1` [Example I-46, 6,8-Dimethyl-7-{2-[3-(2-methyl-pyrimidin-4-yl)-phenylamino]-pyrimidin-4-yl}-3,4-dihydro-2H-pyrrolo[1,2-a]pyrazin-1-one], the IC50 is below 100 nM.

`CC(=O)Nc1ccc(Nc2nccc(-c3c(C)c4n(c3C)CCNC4=O)n2)cc1Cl` [Example I-47, N-{2-Chloro-4-[4-(6,8-dimethyl-1-oxo-1,2,3,4-tetrahydro-pyrrolo[1,2-a]pyrazin-7-yl)-pyrimidin-2-ylamino]-phenyl}-acetamide]: the IC50 is below 1000 nM.

Take `Cc1cc2cc(Nc3nccc(-c4c(C)c5n(c4C)CCNC5=O)n3)ccc2[nH]1` [Example I-48, 6,8-Dimethyl-7-[2-(2-methyl-1H-indol-5-ylamino)-pyrimidin-4-yl]-3,4-dihydro-2H-pyrrolo[1,2-a]pyrazin-1-one]: the IC50 is below 1000 nM.

With `Cc1c(-c2ccnc(Nc3cccc(-c4cnco4)c3)n2)c(C)n2c1C(=O)NCC2` [Example I-49, 6,8-Dimethyl-7-[2-(3-oxazol-5-yl-phenylamino)-pyrimidin-4-yl]-3,4-dihydro-2H-pyrrolo[1,2-a]pyrazin-1-one], the IC50 is below 1000 nM.

On to `Cc1c(-c2ccnc(Nc3ccc(S(=O)(=O)N4CCOCC4)cc3)n2)c(C)n2c1C(=O)NCC2` [Example I-50, 6,8-Dimethyl-7-{2-[4-(morpholine-4-sulfonyl)-phenylamino]-pyrimidin-4-yl}-3,4-dihydro-2H-pyrrolo[1,2-a]pyrazin-1-one], for which the IC50 was below 1000 nM.

`Cc1c(-c2ccnc(Nc3ccc(OCCN4CCOCC4)cc3)n2)c(C)n2c1C(=O)NCC2` [Example I-51, 6,8-Dimethyl-7-{2-[4-(2-morpholin-4-yl-ethoxy)-phenylamino]-pyrimidin-4-yl}-3,4-dihydro-2H-pyrrolo[1,2-a]pyrazin-1-one]: the IC50 was below 1000 nM.

Regarding `Cc1c(-c2ccnc(Nc3ccc(-c4cnco4)cc3)n2)c(C)n2c1C(=O)NCC2` [Example I-52, 6,8-Dimethyl-7-[2-(4-oxazol-5-yl-phenylamino)-pyrimidin-4-yl]-3,4-dihydro-2H-pyrrolo[1,2-a]pyrazin-1-one], the IC50 is below 1000 nM.
